In US20260124158A1, “COMPOSITIONS AND METHODS TO REDUCE BIOLOGICAL AGE OF AN ADULT ANIMAL” (Société des Produits Nestlé S.A., priority 2022, published 2026):

How the values were obtained:
[1] = system: muscle gastrocnemius of old mice; assay: Muscle biological age by DNA methylation, pan tissue clock, in old mice; type: in vivo, mouse
From the text: (§1) All animal experiments comply with the International Guiding Principles for Biomedical Research Involving Animals developed by the Council for International Organizations of Medical Sciences and the following guidelines for animal welfare. 24 old mice aged 18 months and 12 young mice aged 6 months were kept in a temperature-and humidity-controlled environment with a 12:12-h light-dark cycle. Mice had access to nesting and enrichment materials and were provided with ad libitum access to water and food.
(§2) Old mice were split in two groups and received either 20 mg/kg body weight of thymol or vehicle by gavage daily for 12 weeks, whereas young mice received the vehicle only (n=12). Animals found dead or euthanized at the humane endpoint for pain or physical distress, have been excluded from the analysis. At the end of the treatment, mice were euthanized with isoflurane after 2-hours fasting. Muscle gastrocnemius has been dissected samples and snap frozen in liquid nitrogen and stored at −80° C.
(§3) DNA extraction was performed on 100 mg of muscle using QIAGEN DNeasy Blood and Tissue kit (Cat. No: 69506) and following manufacturer recommendations. DNA was quantified using the DropSense technology (from Unchained Labs). […]
(§4) To calculate biological age, raw data have been analysed using algorithms (clocks) developed by the Clock Foundation. […] Data were plotted and analysed using GraphPad Prism 9. […]

[2] = system: muscle gastrocnemius of old mice; assay: Muscle biological age by DNA methylation, intervention muscle clock, in old mice; type: in vivo, mouse; conditions: 20 mg/kg/day for 12 weeks
From the text: as §1, §2, §3, §4

**Q.** For `Cc1ccc(C(C)C)c(O)c1` [thymol], which “reduction of muscle biological age measured with the pan tissue clock” value ([1]; 20 mg/kg/day by gavage daily for 12 weeks, vs old vehicle) is on record?
**A.** Its value is 20.3%.

**Q.** What about the “effect on biological age in old mice” value ([1]; 20 mg/kg/day for 12 weeks) of the same molecule?
**A.** The value was “significantly reduced biological age in old mice”.

**Q.** What about the “effects on biological age using the interventions muscle clock” value [2] of the same molecule?
**A.** Its value is “confirmed”.
